The text below walks through data of patent US9511073B2, “Aromatic amides and uses thereof” (TAXIS Pharmaceuticals, Inc., priority 2011, dated 2016).

Converted amounts (≈) assume the structure as drawn.

For one experiment, the system named is Staphylococcus aureus (Isolate ID ATCC 29213). Kind of experiment: Bacterial assay: MIC by broth microdilution or agar dilution (CLSI), S. aureus ATCC 29213. Format: cell-based. The following applies: S. aureus (ATCC29213). The method in brief: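 Activity is binned (A ≤0.25 μg/mL; B >0.25–1.0; C >1.0–16; D >16 μg/mL) from MICs determined per CLSI by broth microdilution or agar dilution, on S. aureus ATCC 29213 plus an FtsZ-G196A mutant strain.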
For orientation: Dilution methods test growth across graded concentrations, often in twofold steps.
In the case of `NC(=O)c1c(F)ccc(OC(CC(O)CO)c2nc(-c3ccc(C(F)(F)F)cc3)c(Br)o2)c1F` (centres unmarked) [Compound 157, 3-(1-(5-bromo-4-(4-(trifluoromethyl)phenyl)oxazol-2-yl)-3,4-dihydroxybutoxy)-2,6-difluorobenzamide], the “S. aureus MIC (μg/mL) Activity Range” value is listed as “B (activity>0.25 μg/mL-1.0 μg/mL)”.

The experiment is the same for the next values; noted with them: Staphylococcus aureus, ATCC29213, read-out: S. aureus MIC (μg/mL) Activity Range, S. aureus (ATCC29213).
With `N#Cc1ccc(-c2nc(C(CO)Oc3ccc(F)c(C(N)=O)c3F)oc2Br)s1` (centres unmarked) [Compound 236, 3-(1-(5-bromo-4-(5-cyanothiophen-2-yl)oxazol-2-yl)-2-hydroxyethoxy)-2,6-difluorobenzamide], the MIC is 0.25 to 1 µg/mL (≈ 0.532 to 2.13 µM). With `CCNC(=O)NCC(Oc1ccc(F)c(C(N)=O)c1F)c1nc(-c2ccc(C(F)(F)F)cc2)co1` (centres unmarked) [Compound 286, 3-(2-(3-ethylureido)-1-(4-(4-(trifluoromethyl)phenyl)oxazol-2-yl)ethoxy)-2,6-difluorobenzamide], the MIC was above 16 µg/mL. Still for that read-out and setting: then `CC(Oc1ccc(F)c(C(N)=O)c1F)c1nc(-c2ccc(Cl)cc2)ns1` (centres unmarked) [Compound 33, 3-(1-(3-(4-chlorophenyl)-1,2,4-thiadiazol-5-yl)ethoxy)-2,6-difluorobenzamide], with below 0.25 µg/mL; and `Cn1ccnc1CNC(=O)OCC(Oc1ccc(F)c(C(N)=O)c1F)c1nc(-c2ccc(C(F)(F)F)cc2)c(Br)o1` (centres unmarked) [Compound 201, 2-(5-bromo-4-(4-(trifluoromethyl)phenyl)oxazol-2-yl)-2-(3-carbamoyl-2,4-difluorophenoxy)ethyl ((1-methyl-1H-imidazol-2-yl)methyl)carbamate], with 0.25 to 1 µg/mL (≈ 0.388 to 1.55 µM). The same measure, in the same setting: the same measure for `CN(CC(=O)OCC(Oc1ccc(F)c(C(N)=O)c1F)c1nc(-c2ccc(Cl)cc2)c(Cl)o1)C(=O)OC(C)(C)C` (centres unmarked) [Compound 58, 2-(3-carbamoyl-2,4-difluorophenoxy)-2-(5-chloro-4-(4-chlorophenyl)oxazol-2-yl)ethyl 2-((tert-butoxycarbonyl)(methyl)amino)acetate]: 1 to 16 µg/mL (≈ 1.67 to 26.6 µM); for `C=CCc1oc(C(C)Oc2ccc(F)c(C(N)=O)c2F)nc1-c1ccc(Cl)cc1` (centres unmarked) [Compound 7]: 0.25 to 1 µg/mL (≈ 0.597 to 2.39 µM); for `CCCc1oc(C(COC(C)=O)Oc2ccc(F)c(C(N)=O)c2F)nc1-c1ccc(C(F)(F)F)cc1` (centres unmarked) [Compound 65, 2-(3-carbamoyl-2,4-difluorophenoxy)-2-(5-propyl-4-(4-(trifluoromethyl)phenyl)oxazol-2-yl)ethyl acetate]: 1 to 16 µg/mL. For `Cc1ncccc1CNC(=O)OCC(Oc1ccc(F)c(C(N)=O)c1F)c1nc(-c2ccc(C(F)(F)F)cc2)c(Br)o1` (centres unmarked) [Compound 215, 2-(5-bromo-4-(4-(trifluoromethyl)phenyl)oxazol-2-yl)-2-(3-carbamoyl-2,4-difluorophenoxy)ethyl ((2-methylpyridin-3-yl)methyl)carbamate], the MIC lay in the range of 0.25 to 1 µg/mL (≈ 0.381 to 1.53 µM). On the same count and under the same terms, the same measure for `CC(=O)OCC(COC(C)=O)CC(Oc1ccc(F)c(C(N)=O)c1F)c1nc(-c2ccc(C(F)(F)F)cc2)c(Br)o1` (centres unmarked) [Compound 133, 2-(2-(5-bromo-4-(4-(trifluoromethyl)phenyl)oxazol-2-yl)-2-(3-carbamoyl-2,4-difluorophenoxy)ethyl)propane-1,3-diyl diacetate]: above 16 µg/mL; for `NC(=O)c1c(F)ccc(OC(CO)c2nc(-c3ccc(C(F)(F)F)cc3)c(C3CC3)o2)c1F` (centres unmarked) [Compound 269, 3-(1-(5-cyclopropyl-4-(4-(trifluoromethyl)phenyl)oxazol-2-yl)-2-hydroxyethoxy)-2,6-difluorobenzamide]: 1 to 16 µg/mL (≈ 2.14 to 34.2 µM). Same read-out and setting: then `COCC(Oc1ccc(F)c(C(N)=O)c1F)c1nc(-c2ccc(C(F)(F)F)cc2)c(Br)o1` (centres unmarked) [Compound 103, 3-(1-(5-bromo-4-(4-(trifluoromethyl)phenyl)oxazol-2-yl)-2-methoxyethoxy)-2,6-difluorobenzamide], with 0.25 to 1 µg/mL (≈ 0.48 to 1.92 µM); and `CC(=O)OCC(Oc1ccc(F)c(C(N)=O)c1F)c1nc(-c2ccc(-c3noc(C)n3)cc2)c(Br)o1` (centres unmarked) [Compound 82, 2-(5-bromo-4-(4-(5-methyl-1,2,4-oxadiazol-3-yl)phenyl)oxazol-2-yl)-2-(3-carbamoyl-2,4-difluorophenoxy)ethyl acetate], with 1 to 16 µg/mL; and `NC(=O)c1c(F)ccc(OC(COC(=O)CCN2C(=O)c3ccccc3C2=O)c2nc(-c3ccc(C(F)(F)F)cc3)c(Br)o2)c1F` (centres unmarked) [Compound 64, 2-(5-bromo-4-(4-(trifluoromethyl)phenyl)oxazol-2-yl)-2-(3-carbamoyl-2,4-difluorophenoxy)ethyl 3-(1,3-dioxoisoindolin-2-yl)propanoate], with below 0.25 µg/mL. On to `NC(=O)c1c(F)ccc(O[C@H](CO)c2nc(-c3ccc(C(=O)N4CCOCC4)cc3)c(Br)o2)c1F` [Compound 255B, (R)-3-(1-(5-bromo-4-(4-(morpholine-4-carbonyl)phenyl)oxazol-2-yl)-2-hydroxyethoxy)-2,6-difluorobenzamide], for which the MIC was above 16 µg/mL.

In the case of `NC(=O)c1c(F)ccc(OC(CNC(=O)c2cccnc2)c2nc(-c3ccc(C(F)(F)F)cc3)co2)c1F` (centres unmarked) [Compound 293, N-(2-(3-carbamoyl-2,4-difluorophenoxy)-2-(4-(4-(trifluoromethyl)phenyl)oxazol-2-yl)ethyl)nicotinamide], the MIC was above 16 µg/mL. In the case of `NC(=O)c1c(F)ccc(OC(COC(=O)CCC(=O)O)c2nc(-c3ccc(C(F)(F)F)cc3)c(Br)o2)c1F` (centres unmarked) [Compound 74, 4-(2-(5-bromo-4-(4-(trifluoromethyl)phenyl)oxazol-2-yl)-2-(3-carbamoyl-2,4-difluorophenoxy)ethoxy)-4-oxobutanoic acid], the MIC lay within 1 to 16 µg/mL (≈ 1.65 to 26.3 µM). `NC(=O)c1c(F)ccc(OC(CO)c2nc(-c3ccc(C(F)(F)F)cc3)oc2Br)c1F` (centres unmarked) [Compound 138, 3-(1-(5-bromo-2-(4-(trifluoromethyl)phenyl)oxazol-4-yl)-2-hydroxyethoxy)-2,6-difluorobenzamide]: the MIC lay in the range of 1 to 16 µg/mL (≈ 1.97 to 31.5 µM). Same read-out and setting: then `CC(=O)OCCC(Oc1ccc(F)c(C(N)=O)c1F)c1nc(-c2ccc(C(F)(F)F)cc2)c(Br)o1` (centres unmarked) [Compound 72, 3-(5-bromo-4-(4-(trifluoromethyl)phenyl)oxazol-2-yl)-3-(3-carbamoyl-2,4-difluorophenoxy)propyl acetate], with 1 to 16 µg/mL. On the same count and under the same terms, then `CN(CCNC(=O)OCC(Oc1ccc(F)c(C(N)=O)c1F)c1nc(-c2ccc(C(F)(F)F)cc2)c(Br)o1)C(=O)OC(C)(C)C` (centres unmarked) [Compound 153, tert-butyl (2-(((2-(5-bromo-4-(4-(trifluoromethyl)phenyl)oxazol-2-yl)-2-(3-carbamoyl-2,4-difluorophenoxy)ethoxy)carbonyl)amino)ethyl)(methyl)carbamate], with 0.25 to 1 µg/mL (≈ 0.353 to 1.41 µM). For `NC(=O)c1c(F)ccc(OC(CNC(=O)c2cccnc2)c2nc(-c3ccc(C(F)(F)F)cc3)c(Br)o2)c1F` (centres unmarked) [Compound 295, N-(2-(5-bromo-4-(4-(trifluoromethyl)phenyl)oxazol-2-yl)-2-(3-carbamoyl-2,4-difluorophenoxy)ethyl)nicotinamide], the MIC was 0.25 to 1 µg/mL (≈ 0.409 to 1.64 µM).

`NC(=O)c1c(F)ccc(OC(Cn2ccnc2)c2nc(-c3ccc(C(F)(F)F)cc3)c(Br)o2)c1F` (centres unmarked) [Compound 114, 3-(1-(5-bromo-4-(4-(trifluoromethyl)phenyl)oxazol-2-yl)-2-(1H-imidazol-1-yl)ethoxy)-2,6-difluorobenzamide]: the MIC fell in the range of 1 to 16 µg/mL (≈ 1.79 to 28.7 µM).

For the compound `CC(=O)OCC(Oc1ccc(F)c(C(N)=O)c1F)c1nc(-c2ccc(Cl)cc2)c(Cl)o1` (centres unmarked) [Compound 46, 2-(3-carbamoyl-2,4-difluorophenoxy)-2-(5-chloro-4-(4-chlorophenyl)oxazol-2-yl)ethyl acetate], the MIC fell in the range of 0.25 to 1 µg/mL.

On to `C=CCc1oc(C(CCC)Oc2ccc(F)c(C(N)=O)c2F)nc1-c1ccc(Cl)cc1` (centres unmarked) [Compound 28], for which the MIC fell in the range of 1 to 16 µg/mL (≈ 2.24 to 35.8 µM). Still for that read-out and setting: then `Cn1cccc1CNC(=O)OCC(Oc1ccc(F)c(C(N)=O)c1F)c1nc(-c2ccc(C(F)(F)F)cc2)c(Br)o1` (centres unmarked) [Compound 202, 2-(5-bromo-4-(4-(trifluoromethyl)phenyl)oxazol-2-yl)-2-(3-carbamoyl-2,4-difluorophenoxy)ethyl ((1-methyl-1H-pyrrol-2-yl)methyl)carbamate], with 0.25 to 1 µg/mL (≈ 0.389 to 1.55 µM). As to `NC(=O)c1c(F)ccc(OC(CO)c2nc(-c3ccc(Cl)cc3F)c(Br)o2)c1F` (centres unmarked) [Compound 235, 3-(1-(5-bromo-4-(4-chloro-2-fluorophenyl)oxazol-2-yl)-2-hydroxyethoxy)-2,6-difluorobenzamide], the MIC is below 0.25 µg/mL. With `CN1CCN(C(=O)OCC(Oc2ccc(F)c(C(N)=O)c2F)c2nc(-c3ccc(C(F)(F)F)cc3)c(Br)o2)CC1` (centres unmarked) [Compound 178, 2-(5-bromo-4-(4-(trifluoromethyl)phenyl)oxazol-2-yl)-2-(3-carbamoyl-2,4-difluorophenoxy)ethyl 4-methylpiperazine-1-carboxylate], the MIC is 0.25 to 1 µg/mL (≈ 0.395 to 1.58 µM).

Take `CCOC(=O)COCC(Oc1ccc(F)c(C(N)=O)c1F)c1nc(-c2ccc(C(F)(F)F)cc2)c(Br)o1` (centres unmarked) [Compound 84, ethyl 2-(2-(5-bromo-4-(4-(trifluoromethyl)phenyl)oxazol-2-yl)-2-(3-carbamoyl-2,4-difluorophenoxy)ethoxy)acetate]: the MIC lay within 0.25 to 1 µg/mL (≈ 0.421 to 1.69 µM).

For `NC(=O)c1c(F)ccc(OC(C(=O)O)c2coc(-c3ccc(C(F)(F)F)cc3)n2)c1F` (centres unmarked) [Compound 132, 2-(3-carbamoyl-2,4-difluorophenoxy)-2-(2-(4-(trifluoromethyl)phenyl)oxazol-4-yl)acetic acid], the MIC was above 16 µg/mL.

For the compound `NC(=O)c1c(F)ccc(O[C@H](CO)c2nc(-c3cncs3)c(Br)o2)c1F` [Compound 247B, (R)-3-(1-(5-bromo-4-(thiazol-5-yl)oxazol-2-yl)-2-hydroxyethoxy)-2,6-difluorobenzamide], the MIC was above 16 µg/mL. On the same count and under the same terms, the same measure for `CC(=O)OCC(OC(C)=O)C(Oc1ccc(F)c(C(N)=O)c1F)c1nc(-c2ccc(C(F)(F)F)cc2)c(Br)o1` (centres unmarked) [Compound 219, 3-(5-bromo-4-(4-(trifluoromethyl)phenyl)oxazol-2-yl)-3-(3-carbamoyl-2,4-difluorophenoxy)propane-1,2-diyl diacetate]: above 16 µg/mL; for `CCCc1oc(C(CCC)Oc2ccc(F)c(C(N)=O)c2F)nc1-c1ccc(Cl)cc1` (centres unmarked) [Compound 30]: 1 to 16 µg/mL (≈ 2.23 to 35.6 µM).
